Results reported in PubChem BioAssay AID1963433 (Molecular Pharmacology Branch, DTP, NCI, 2024).
“And” between values parts separate entries of the source, which are not always exact repeats. Equal entries are not always repeated.

System: 772245-204-R-J1-PDC complex spheroid growth
Experiment: Anticancer human tumor 772245-204-R-J1-PDC patient-derived rhabdomyosarcoma cell line growth inhibition [Asc]
Conditions: for viability, T/C: stronger effect = lower value
Method in brief: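 Spheroid model: tumor line + HUVEC + hMSC. Single agents and combinations; top conc. at/near clinical Cmax (10 microM if undetermined), half-log dilutions. DMSO stocks at 800-fold test concentration.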

[1] = curve of first compound, second compound 0.03 µM
[2] = curve of first compound, second compound 0.0949 µM
[3] = curve of first compound, second compound 0.3 µM
[4] = curve of first compound, second compound 0.949 µM
[5] = curve of first compound, second compound 3 µM
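Note: compound exposure lasted seven days.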
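Throughout, for viability, T/C: 100% = DMSO vehicle control viability.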

COc1c(OCCCN2CCOCC2)ccc2c3n(c(=NC(=O)c4cnc(N)nc4)nc12)CCN3
viability, T/C (compound 0.00316 µM): 94.7% and 116% and 107% | viability, T/C (compound 0.01 µM): 91.3% and 98.9% and 106% | viability, T/C (compound 0.0316 µM): 77% and 76.2% and 90.4% | viability, T/C (compound 0.1 µM): 46.1% and 55.2% and 63.9% | viability, T/C (compound 0.316 µM): 41.3% and 42% and 43.8% | viability, T/C (compound 1 µM): 24.4% and 25.4% and 35.3% | IC50 (curve of compound): 0.105 µM and 0.175 µM and 0.217 µM

Cc1nc(N2CCC3(CC2)COC(C)C3N)c(CO)nc1Sc1ccnc(N)c1Cl (configuration not stated) + CCN1C(C(=O)NC23CCC(C(=O)O)(CC2)CC3)C(c2cccc(Cl)c2F)C2(C(=O)Nc3cc(Cl)ccc32)C12CCCCC2
IC50 [1]: > 3 µM | IC50 [2]: > 3 µM | IC50 [3]: > 3 µM | IC50 [4]: > 3 µM | IC50 [5]: 2.74 µM | viability, T/C (second compound 0.03 µM, first compound 0.00949 µM): 94.9% | viability, T/C (second compound 0.03 µM, first compound 0.03 µM): 120% | viability, T/C (second compound 0.03 µM, first compound 0.0949 µM): 108% | viability, T/C (second compound 0.03 µM, first compound 0.3 µM): 102% | viability, T/C (second compound 0.03 µM, first compound 0.949 µM): 76.9% | viability, T/C (second compound 0.03 µM, first compound 3 µM): 56.9% | viability, T/C (second compound 0.0949 µM, first compound 0.00949 µM): 97.1% | viability, T/C (second compound 0.0949 µM, first compound 0.03 µM): 100% | viability, T/C (second compound 0.0949 µM, first compound 0.0949 µM): 119% | viability, T/C (second compound 0.0949 µM, first compound 0.3 µM): 93.3% | viability, T/C (second compound 0.0949 µM, first compound 0.949 µM): 84.1% | viability, T/C (second compound 0.0949 µM, first compound 3 µM): 51% | viability, T/C (second compound 0.3 µM, first compound 0.00949 µM): 111% | viability, T/C (second compound 0.3 µM, first compound 0.03 µM): 110% | viability, T/C (second compound 0.3 µM, first compound 0.0949 µM): 88.3% | viability, T/C (second compound 0.3 µM, first compound 0.3 µM): 85.3% | viability, T/C (second compound 0.3 µM, first compound 0.949 µM): 77.8% | viability, T/C (second compound 0.3 µM, first compound 3 µM): 52% | viability, T/C (second compound 0.949 µM, first compound 0.00949 µM): 113% | viability, T/C (second compound 0.949 µM, first compound 0.03 µM): 109% | viability, T/C (second compound 0.949 µM, first compound 0.0949 µM): 109% | viability, T/C (second compound 0.949 µM, first compound 0.3 µM): 97.5% | viability, T/C (second compound 0.949 µM, first compound 0.949 µM): 75.7% | viability, T/C (second compound 0.949 µM, first compound 3 µM): 52% | viability, T/C (second compound 3 µM, first compound 0.00949 µM): 75.6% | viability, T/C (second compound 3 µM, first compound 0.03 µM): 92.5% | viability, T/C (second compound 3 µM, first compound 0.0949 µM): 85.7% | viability, T/C (second compound 3 µM, first compound 0.3 µM): 71.9% | viability, T/C (second compound 3 µM, first compound 0.949 µM): 62.6% | viability, T/C (second compound 3 µM, first compound 3 µM): 48.5%

O=C(c1ccc(F)c(F)c1Nc1ccc(I)cc1F)N1CC(O)([C@@H]2CCCCN2)C1 + CCN1C(C(=O)NC23CCC(C(=O)O)(CC2)CC3)C(c2cccc(Cl)c2F)C2(C(=O)Nc3cc(Cl)ccc32)C12CCCCC2
IC50 [1]: > 1 µM | IC50 [2]: > 1 µM | IC50 [3]: > 1 µM | IC50 [4]: > 1 µM | IC50 [5]: > 1 µM | viability, T/C (second compound 0.03 µM, first compound 0.00316 µM): 115% | viability, T/C (second compound 0.03 µM, first compound 0.01 µM): 109% | viability, T/C (second compound 0.03 µM, first compound 0.0316 µM): 108% | viability, T/C (second compound 0.03 µM, first compound 0.1 µM): 112% | viability, T/C (second compound 0.03 µM, first compound 0.316 µM): 100% | viability, T/C (second compound 0.03 µM, first compound 1 µM): 50.8% | viability, T/C (second compound 0.0949 µM, first compound 0.00316 µM): 113% | viability, T/C (second compound 0.0949 µM, first compound 0.01 µM): 91.5% | viability, T/C (second compound 0.0949 µM, first compound 0.0316 µM): 108% | viability, T/C (second compound 0.0949 µM, first compound 0.1 µM): 105% | viability, T/C (second compound 0.0949 µM, first compound 0.316 µM): 115% | viability, T/C (second compound 0.0949 µM, first compound 1 µM): 70.6% | viability, T/C (second compound 0.3 µM, first compound 0.00316 µM): 102% | viability, T/C (second compound 0.3 µM, first compound 0.01 µM): 121% | viability, T/C (second compound 0.3 µM, first compound 0.0316 µM): 98.6% | viability, T/C (second compound 0.3 µM, first compound 0.1 µM): 106% | viability, T/C (second compound 0.3 µM, first compound 0.316 µM): 106% | viability, T/C (second compound 0.3 µM, first compound 1 µM): 73.9% | viability, T/C (second compound 0.949 µM, first compound 0.00316 µM): 110% | viability, T/C (second compound 0.949 µM, first compound 0.01 µM): 109% | viability, T/C (second compound 0.949 µM, first compound 0.0316 µM): 115% | viability, T/C (second compound 0.949 µM, first compound 0.1 µM): 98.5% | viability, T/C (second compound 0.949 µM, first compound 0.316 µM): 105% | viability, T/C (second compound 0.949 µM, first compound 1 µM): 62.3% | viability, T/C (second compound 3 µM, first compound 0.00316 µM): 90.9% | viability, T/C (second compound 3 µM, first compound 0.01 µM): 87.1% | viability, T/C (second compound 3 µM, first compound 0.0316 µM): 85.1% | viability, T/C (second compound 3 µM, first compound 0.1 µM): 100% | viability, T/C (second compound 3 µM, first compound 0.316 µM): 88.5% | viability, T/C (second compound 3 µM, first compound 1 µM): 53.3%
